This note sets out measurements from patent EP1356819A1, “Use of proteasome/ubiquitination inhibitors and/or MMP inhibitors alone or in combination with a growth hormone for treating /preventing catabolic conditions” (Universitair Medisch Centrum Utrecht, priority 2002, dated 2003).

Assay [1] has as its system GH binding protein (GHBP). The experiment in a line: Release of GH binding protein into the growth medium, Western blotting with Mab5 antibody. The assay is classed as cell-based, rabbit. Particulars: 1 µM; growth medium after 150 min at 30°C (Fig. 3). How it is done:
Cell lines and plasmids. Chinese hamster lung cells, ts20, bearing a thermolabile ubiquitin-activating enzyme E1, and E36 control cells were stably transfected with a pCB6 construct containing the full length rabbit GHR cDNA sequence. The newly established cell lines were grown at 30°C in MEMα supplemented with 10% FCS, 4.5 g/l glucose, 100 U/ml penicillin, 100 µg/ml streptomycin and 0.45 mg/ml geneticin (van Kerkhof et al., 2002). Sixteen hours before the start of the experiment, 10 mM butyrate was added to increase the expression of the GHR (van Kerkhof et al., 2002).
Cell lysis, immunoprecipitation, and western blotting. […] Cell lysates were subjected to SDS-polyacrylamide gel electrophoresis using a precast ready gel system (BioRad, Veenendaal, The Netherlands) and transferred to polyvinylidenedifluoride (PVDF) paper. The blots were immunostained using the polyclonal GHR antibodies anti-T or anti-B or the monoclonal antibody mAb5 followed by peroxidase conjugated protein A or rabbit anti-mouse IgG (Pierce Chemical Co.) as described previously (van Kerkhof et al. 2002), and detected by enhanced chemiluminescence (Roche Molecular Biochemicals).
• Fig. 1. […] Quantification of receptors at the cell surface. […] The number GHRs were calculated and expressed as a percentage of untreated cells. • Fig. 3. […]
For orientation: In western blotting, separated proteins are transferred to a membrane and probed.

A further assay concerns GHR. Kind of assay: Western blotting of GHR species (mature and precursor) in cell lysates after drug treatment. The assay is classed as cell-based, rabbit. How it is done:
Cell lines and plasmids. Chinese hamster lung cells, ts20, bearing a thermolabile ubiquitin-activating enzyme E1, and E36 control cells were stably transfected with a pCB6 construct containing the full length rabbit GHR cDNA sequence.
Antibodies and materials. […] Inhibitors were dissolved in dimethylsulfoxide (DMSO).
Cell lysis, immunoprecipitation, and western blotting. Cells (in 6-cm dishes) were lysed on ice in 1.0 mL of lysis buffer containing 1% Triton X-100, 1 mM EDTA in PBS, with 50 mM NaF, 1 mM Na3VO4, 10 µg/ml aprotinin, 10 µg/ml leupeptin, and 1 mM PMSF. Cell lysates were subjected to SDS-polyacrylamide gel electrophoresis using a precast ready gel system (BioRad, Veenendaal, The Netherlands) and transferred to polyvinylidenedifluoride (PVDF) paper.
• Fig. 1. Effect of various drugs on GHR species. Cells were treated for 3 h as follows: lane 1, vehicle; lane 2, MG132 (10 µM); lane 3, Tapi-I (10 µM); lane 4, MG132 (10 µM) and Tapi-I (10 µM); lane 5, cycloheximide (0.1 mM); m, mature; p, precursor GHR. […] Quantification of receptors at the cell surface. […] The number GHRs were calculated and expressed as a percentage of untreated cells. • Fig. 3. Effect of metalloprotease inhibitors on the release of GH binding protein.

Where [2] appears, read: Chinese hamster lung cells transfected with rabbit GHR, treated for 3 h, MG132 10 µM, Tapi-I 10 µM, cycloheximide 0.1 mM, compared with vehicle control (Fig. 1).

Read-outs that look alike come from different tables or passages of the source. Where a SMILES comes first, the peptide text is derived from it. The star is where a group is joined. Cbz = O=C(OCc1ccccc1)*

As for `CNC(=O)[C@H](Cc1c[nH]c2ccccc12)NC(=O)[C@@H](CC(=O)NO)CC(C)C` [GM6001], the “inhibition of shedding of GHBP” value in assay [1] is listed as “almost completely inhibited”.

Take `C[C@@H]1C[C@@H]([C@H](O)CC2CC(=O)NC(=O)C2)C(=O)[C@@H](C)C1` [cycloheximide]: in the assay with GHR, the “amount of precursor GHR” value was “virtually disappeared” and the “steady state amount of mature GHR” value was “virtually disappeared”.

`CC(C)C[C@H](CC(=O)NO)C(=O)N[C@@H](Cc1ccc2ccccc2c1)C(=O)N[C@@H](C)C(=O)NCCN` [Tapi-I]: in the assay with GHR (setting [2]), the “amount of precursor GHR” value is reported as “unchanged” and the “steady state amount of mature GHR” value is on record as “slight increase”. For the same compound, the “inhibition of shedding of GHBP” value in assay [1] is “almost completely inhibited”.

For the compound `CC(C)C[C@@H](C=O)NC(=O)[C@H](CC(C)C)NC(=O)[C@H](CC(C)C)NC(=O)OCc1ccccc1` [MG132, carbobenzoxy-L-leucyl-L-leucyl-L-leucinal] (Cbz-Leu-Leu-Leu-aldehyde), in the assay on GHR (setting [2]), the “amount of precursor GHR” value is “remained constant” and the “steady state amount of mature GHR” value is on record as “decreased”.
